Measured values from patent US20020026053A1, “Novel 3-(substituted) -2- indolinones compounds and use thereof as inhibitors of protein kinase activity” (priority 1997, published 2002).

What follows are molecules tested against T1, Met receptor (EGFR/Met chimeric cells, EMR) (Homo sapiens, UniProt P08581) (assay: Met Autophosphorylation Assay). Details: protocol P.130.
T1 construct: expressed in transfected cells; the other entry of the earlier key: EGFR (P00533, Epidermal growth factor receptor)
T1 sequence (P08581 with tags, fused parts or gaps): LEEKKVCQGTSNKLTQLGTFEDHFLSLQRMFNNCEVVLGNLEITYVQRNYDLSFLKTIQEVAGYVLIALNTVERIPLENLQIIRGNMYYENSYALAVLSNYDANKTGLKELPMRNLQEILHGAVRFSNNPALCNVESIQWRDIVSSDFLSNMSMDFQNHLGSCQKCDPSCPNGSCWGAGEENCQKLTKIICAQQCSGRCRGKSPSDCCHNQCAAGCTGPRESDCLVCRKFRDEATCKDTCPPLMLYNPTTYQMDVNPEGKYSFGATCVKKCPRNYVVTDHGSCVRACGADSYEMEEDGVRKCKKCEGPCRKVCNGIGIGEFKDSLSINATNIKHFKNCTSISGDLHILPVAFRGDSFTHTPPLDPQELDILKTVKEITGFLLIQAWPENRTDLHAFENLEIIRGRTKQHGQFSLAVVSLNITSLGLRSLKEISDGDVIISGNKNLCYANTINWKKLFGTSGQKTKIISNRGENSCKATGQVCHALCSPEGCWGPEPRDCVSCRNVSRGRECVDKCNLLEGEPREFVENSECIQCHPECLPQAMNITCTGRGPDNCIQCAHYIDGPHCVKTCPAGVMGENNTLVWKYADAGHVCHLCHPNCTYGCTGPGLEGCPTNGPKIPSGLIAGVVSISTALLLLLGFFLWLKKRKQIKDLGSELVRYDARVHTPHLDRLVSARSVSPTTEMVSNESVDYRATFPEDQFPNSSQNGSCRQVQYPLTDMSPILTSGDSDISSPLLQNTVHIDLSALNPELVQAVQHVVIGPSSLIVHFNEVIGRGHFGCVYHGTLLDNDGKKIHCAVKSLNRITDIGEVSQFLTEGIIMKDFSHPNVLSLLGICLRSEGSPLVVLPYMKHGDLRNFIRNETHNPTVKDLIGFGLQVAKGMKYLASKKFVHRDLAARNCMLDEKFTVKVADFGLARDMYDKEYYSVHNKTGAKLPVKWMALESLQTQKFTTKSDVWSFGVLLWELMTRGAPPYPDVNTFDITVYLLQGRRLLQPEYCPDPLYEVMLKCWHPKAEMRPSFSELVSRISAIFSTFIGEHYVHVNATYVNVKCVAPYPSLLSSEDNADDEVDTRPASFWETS
Format: biochemical
In short: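 Met phosphorylation was measured by capture ELISA. Lysates (90 μg/100 μl, HNTG plus 1 mM PMSF) from transiently transfected EGFR/Met chimera (EMR) cells were bound for 60 min at room temperature to wells holding rabbit anti-Met (C-28) on goat anti-rabbit coat. Phosphotyrosine was the read-out.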
In the case of `Cc1c(Br)cc(Br)c2c1C(=Cc1cccc(F)c1)C(=O)N2` [10736/H07], the “Met Kinase % Inhibition (P.130)” value was 31.0%. With `Cc1c(Br)cc(Br)c2c1C(=Cc1ccccc1F)C(=O)N2` [10736/H08] the “Met Kinase % Inhibition (P.130)” value was 33.4%. In the case of `CCc1ccc(C=C2C(=O)Nc3c(Br)cc(Br)c(C)c32)cc1` [10736/H09], the “Met Kinase % Inhibition (P.130)” value was 32.1%. For `COc1cccc(C=C2C(=O)Nc3c(Br)cc(Br)c(C)c32)c1` [10736/H10], the “Met Kinase % Inhibition (P.130)” value was 32.1%. In the case of `Cc1c(Br)cc(Br)c2c1C(=Cc1ccccc1Cl)C(=O)N2` [10736/H11], the “Met Kinase % Inhibition (P.130)” value was 41.5%. In the case of `CCOc1ccc(C=C2C(=O)Nc3c(Br)cc(Br)cc32)cc1` [10737/A02], the “Met Kinase % Inhibition (P.130)” value was 53.2%. In the case of `Cc1ccc(C=C2C(=O)Nc3c(Br)cc(Br)cc32)c(C)c1` [10737/A03], the “Met Kinase % Inhibition (P.130)” value was 58.9%. For `O=C1Nc2c(Br)cc(Br)cc2C1=Cc1cc(F)ccc1F` [10737/A04], the “Met Kinase % Inhibition (P.130)” value was 63.5%. `O=C1Nc2c(Br)cc(Br)cc2C1=Cc1cccc(F)c1F` [10737/A05] was tested, and the “Met Kinase % Inhibition (P.130)” value was 58.9%. For `COc1ccc(C=C2C(=O)Nc3c(Br)cc(Br)cc32)cc1F` [10737/A06], the “Met Kinase % Inhibition (P.130)” value was 57.1%. For `Cc1ccc(C)c(C=C2C(=O)Nc3c(Br)cc(Br)cc32)c1` [10737/A07], the “Met Kinase % Inhibition (P.130)” value was 30.1%. In the case of `O=C1Nc2c(Br)cc(Br)cc2C1=Cc1ccc2ccccc2c1` [10737/A08], the “Met Kinase % Inhibition (P.130)” value was 28.3%. With `O=C1Nc2c(Br)cc(Br)cc2C1=Cc1ccc(Oc2ccccc2)cc1` [10737/A09] the “Met Kinase % Inhibition (P.130)” value was 47.9%. For `CC(C)(C)c1ccc(Oc2cccc(C=C3C(=O)Nc4c(Br)cc(Br)cc43)c2)cc1` [10737/A10], the “Met Kinase % Inhibition (P.130)” value was 15.5%. With `O=C1Nc2c(Br)cc(Br)cc2C1=Cc1cccc(Oc2cccc(C(F)(F)F)c2)c1` [10737/A11] the “Met Kinase % Inhibition (P.130)” value was 25.3%. In the case of `CCOc1ccc(C=C2C(=O)Nc3ccc(I)cc32)cc1` [10737/B02], the “Met Kinase % Inhibition (P.130)” value was 85.0%. With `Cc1ccc(C=C2C(=O)Nc3ccc(I)cc32)c(C)c1` [10737/B03] the “Met Kinase % Inhibition (P.130)” value was 86.3%. For `O=C1Nc2ccc(I)cc2C1=Cc1cc(F)ccc1F` [10737/B04], the “Met Kinase % Inhibition (P.130)” value was 88.9%. In the case of `O=C1Nc2ccc(I)cc2C1=Cc1cccc(F)c1F` [10737/B05], the “Met Kinase % Inhibition (P.130)” value was 89.5%. In the case of `COc1ccc(C=C2C(=O)Nc3ccc(I)cc32)cc1F` [10737/B06], the “Met Kinase % Inhibition (P.130)” value was 84.7%. In the case of `Cc1ccc(C)c(C=C2C(=O)Nc3ccc(I)cc32)c1` [10737/B07], the “Met Kinase % Inhibition (P.130)” value was 82.5%. With `O=C1Nc2ccc(I)cc2C1=Cc1ccc2ccccc2c1` [10737/B08] the “Met Kinase % Inhibition (P.130)” value was 84.1%. With `O=C1Nc2ccc(I)cc2C1=Cc1ccc(Oc2ccccc2)cc1` [10737/B09] the “Met Kinase % Inhibition (P.130)” value was 77.0%. With `CC(C)(C)c1ccc(Oc2cccc(C=C3C(=O)Nc4ccc(I)cc43)c2)cc1` [10737/B10] the “Met Kinase % Inhibition (P.130)” value was 84.7%. `O=C1Nc2ccc(I)cc2C1=Cc1cccc(Oc2cccc(C(F)(F)F)c2)c1` [10737/B11] was tested, and the “Met Kinase % Inhibition (P.130)” value was 78.8%. In the case of `CCOc1ccc(C=C2C(=O)Nc3ccc(Br)c(C)c32)cc1` [10737/C02], the “Met Kinase % Inhibition (P.130)” value was 30.6%. For `Cc1ccc(C=C2C(=O)Nc3ccc(Br)c(C)c32)c(C)c1` [10737/C03], the “Met Kinase % Inhibition (P.130)” value was 52.5%. With `Cc1c(Br)ccc2c1C(=Cc1cc(F)ccc1F)C(=O)N2` [10737/C04] the “Met Kinase % Inhibition (P.130)” value was 82.0%. `Cc1c(Br)ccc2c1C(=Cc1cccc(F)c1F)C(=O)N2` [10737/C05] was tested, and the “Met Kinase % Inhibition (P.130)” value was 81.8%. With `COc1ccc(C=C2C(=O)Nc3ccc(Br)c(C)c32)cc1F` [10737/C06] the “Met Kinase % Inhibition (P.130)” value was 38.6%. In the case of `Cc1ccc(C)c(C=C2C(=O)Nc3ccc(Br)c(C)c32)c1` [10737/C07], the “Met Kinase % Inhibition (P.130)” value was 57.5%. `Cc1c(Br)ccc2c1C(=Cc1ccc3ccccc3c1)C(=O)N2` [10737/C08] was tested, and the “Met Kinase % Inhibition (P.130)” value was 54.1%. In the case of `Cc1c(Br)ccc2c1C(=Cc1ccc(Oc3ccccc3)cc1)C(=O)N2` [10737/C09], the “Met Kinase % Inhibition (P.130)” value was 27.6%. `Cc1c(Br)ccc2c1C(=Cc1cccc(Oc3ccc(C(C)(C)C)cc3)c1)C(=O)N2` [10737/C10] was tested, and the “Met Kinase % Inhibition (P.130)” value was 60.0%.
